Results as given in patent US20240342068A1, “CYCLODEXTRIN-BASED ETHYL LAUROYL ARGINATE (LAE) CLATHRATE, AND PREPARATION METHOD AND USE THEREOF” (NANJING UNIVERSITY OF FINANCE & ECONOMICS, priority 2022, published 2024).

Tests used:
[1] = system: Staphylococcus aureus; assay: Antibacterial activity by Oxford cup method with xanthan gum as interfering substance; assay type: cell-based; settings: 0.20% LAE, xanthan gum present, compared with no xanthan gum
Protocol: In order to test the performance of the HPβCD LAE clathrate prepared in Example 1, the antibacterial activity of the HPβCD/LAE clathrate in the presence of an anionic polysaccharide (xanthan gum) as an interfering substance was measured by an Oxford cup method. Groups A to G were set up, and each group had 3 parallel experiments. 15 mL of nutrient agar was added to each petri dish, cooled and solidified, and 100 μL of a Staphylococcus aureus solution (10^5 CFU/mL) was spread on each petri dish. […] Each group was placed with an Oxford cup, and 130 μL of an antibacterial solution was added to each Oxford cup; each of the Oxford cups was diffused in a 4° C. refrigerator for 24 h, cultured at 37° C. for 24 h, and an inhibition zone diameter (IZD) was measured with a micrometer. The mass percentages of the antibacterial solution added in Groups A to G were as follows: A: 0.20% LAE-no xanthan gum; B: 0.20% LAE; C: 0.08% HPβCD/LAE clathrate-0.02% LAE; D: 0.16% HPβCD/LAE clathrate-0.04% LAE; E: 0.40% HPβCD/LAE clathrate-0.10% LAE; F: 0.60% HPβCD/LAE clathrate-0.15% LAE; and G: 0.80% HPβCD/LAE clathrate-0.20% LAE. The […] was the raw material in Example 1.

[2] = pH stability by turbidity and particle size; assay type: physicochemical; settings: aqueous solution containing 1% w/v LAE, pH 1 to 11, room temperature 24 h
Protocol: (§1) The pH stability of a system was characterized by measuring turbidity and particle size. A 1% w/v LAE aqueous solution and an HPβCD/LAE clathrate aqueous solution (4% w/v) containing a same amount of 1% w/v LAE were prepared, respectively. The pH values of the LAE aqueous solution and the HPβCD/LAE clathrate aqueous solution were adjusted to 1, 3, 5, 7, 9, and 11 with 0.01 mol/L to 0.5 mol/L of sodium hydroxide and hydrochloric acid solutions, respectively. After allowing to stand at room temperature for 24 h, the absorbance at 600 nm of the LAE aqueous solutions and the HPβCD/LAE clathrate aqueous solutions with different pH values were measured with a UV spectrophotometer. The absorbance was used to represent a turbidity of the solution, while pure water was used as a reference. The particle size of the solution was measured with a ZS90 nanometer particle size analyzer. Photographs were taken to record the changes of the above solutions stored at 4° C. for 0 h, 24 h, 7 d, and 35 d to characterize the low-temperature storage stability of the samples.

[3] = Low-temperature storage stability at 4° C. (appearance); assay type: physicochemical
Protocol: as §1

[4] = in water at room temperature; cited from earlier work
[5] = pH range; cited from earlier work

Q: For CCCCCCCCCCCC(=O)N[C@@H](CCCN=C(N)N)C(=O)OCC.Cl [LAE, ethyl lauroyl arginate hydrochloride], which inhibition zone [1] is on record?
A: Its inhibition zone is “significantly reduced the inhibition zone of LAE”.

Q: And the “pH stability (turbidity, particle size)” value [2]?
A: The value was “obviously aggregated outside the pH value of 3 to 7”.

Q: What about the low-temperature storage appearance ([3]; prolonged storage at low temperature (4° C., up to 35 d)) of the same compound?
A: Its low-temperature storage appearance is “eventually fully precipitated”.

Q: What about the low-temperature storage appearance ([3]; storage at low temperature (4° C.) for 24 h, pH 1 to 11) of the same compound?
A: The low-temperature storage appearance was “except for the solution of pH=7, all other LAE solutions had obvious crystallization”.

Q: What about the solubility [4] of the same compound?
A: The solubility was “less than 2%”.

Q: And the chemical stability [5]?
A: Its chemical stability is “desirable chemical stability at a pH value of 3 to 7”.
